{"source": "paper PMC9184463", "about": "“Structural basis of ligand binding modes of human EAAT2” (Nature Communications, 2022)", "origin": "cited, not measured here", "test_system": "hEAAT2", "conditions": "cited from earlier work", "data": [{"smiles": "NC(CC(=O)Nc1ccc(Oc2cc(F)c(F)cc2Br)cc1)C(=O)O", "note": "(stereo not shown) [WAY-213613]", "values": [{"measurement": "IC50", "value": 85, "unit": "nM"}]}]}
